Data on five molecules can be found in patent US20250205215A1, “NOVEL USE OF PITOLISANT FOR TREATING SEVERE FATIGUE” (BIOPROJET, priority 2022, published 2025).

For data set [1], the system named is patients with multiple sclerosis. The note with it: cited from earlier work.
The test system of data set [2] is patients with neurological conditions. The following applies: meta-analysis, variety of neurological conditions; cited from earlier work.
A further data set deals with patients with narcolepsy. The note with it: 20 to 40 mg once a day, cited from earlier work.
Data set [3] is described as follows: Blood levels of pitolisant and metabolites in healthy volunteers. It counts as in vivo, human. The following applies: 160, 200 or 240 mg, blood samples. On the procedure:
(§1) A group of 24 healthy volunteers received placebo or pitolisant monohydrochloride mg at doses of 160, 200 or 240 mg. This last dose corresponds to 6 times the maximum dosage recommended in narcolepsy.

For the next data set, the target named is T1, histamine H3 receptors (Homo sapiens, UniProt Q9Y5N1).
T1 construct: Brain Histamine H3 Receptors Occupancy; from tissue; host or cells: living human brain (in vivo PET); value cited from Rusjan et al., Br J Pharmacol 2020
The note with it: 40 mg, cited from earlier work.

The subject of data set [4] is healthy volunteers. In words: Adverse effect study at high doses in healthy volunteers. Type of data set: in vivo, human. On the procedure:
as §1
Furthermore, the rare abnormalities were reported in all treatment groups.

Data set [5] concerns human volunteers deprived of sleep. In words: Fusion Frequency in volunteers deprived of sleep during 24 h. Type of data set: in vivo. The following applies: 30 mg once a day. On the procedure: Pitolisant hydrochloride was administered once a day at a dose of 30 mg in human volunteers deprived of sleep during 24 h. Fatigue evaluated in these volunteers by the Fusion Frequency was not modified by either placebo or pitolisant at this dose.

Data set [6] concerns healthy volunteers. The data set can be described thus: Wakefulness assessed by Spectral EEG in healthy volunteers. Type of data set: in vivo, human. The following applies: 40 mg.
The test system of data set [7] is healthy volunteers. In words: Critical Flicker Fusion Test (CFFT) in healthy volunteers. It counts as in vivo, human. The note with it: for Fusion Frequency (Flicker Fusion Test), fatigue: end of the day, healthy volunteers. The source says: The flicker fusion frequency (F.F.F.) is defined as the frequency, in flickers per second, at which an interrupted light appears as a steady light. It has been established that the score made in such tests can be used as a measure of fatigue (Luczak A, et al. Ergonomics, 2005 Dec. 15; 48 (15):1770-92; Ma et al PLOS One, 2014 Feb. 5; 9 (2):e87121; Maeda et al Jpn J Radiol. 2011 August; 29 (7):483-7).
In human healthy volunteers, fatigue can be evaluated at the end of the day, when fatigue tends to increase, using a known psychometric test, the Flicker Fusion Test as reported by Luczak A, et al. Ergonomics, 2005 Dec. 15; 48 (15):1770-92; Ma et al PLOS One, 2014 Feb. 5; 9 (2):e87121; Maeda et al Jpn J Radiol. 2011 August; 29 (7):483-7.
In a group of 36 healthy volunteers, the change in Fusion Frequency was evaluated at several times along the day and after administration of either placebo or pitolisant monohydrochloride at increasing dosages (20, 40 or 60 mg).

The test system of data set [8] is patients with Obstructive Sleep Apnea (OSA). The following applies: 20 mg od, cited from earlier work.
Setting [9] is: 160, 200 or 240 mg, healthy volunteers.

Entries after “also recorded” stand apart in the source; their conditions may differ. Structures can show the parent of a compound that is named as a salt. Where two headings read alike, the source gives them in different places.

T1 sequence (Q9Y5N1 whole entry): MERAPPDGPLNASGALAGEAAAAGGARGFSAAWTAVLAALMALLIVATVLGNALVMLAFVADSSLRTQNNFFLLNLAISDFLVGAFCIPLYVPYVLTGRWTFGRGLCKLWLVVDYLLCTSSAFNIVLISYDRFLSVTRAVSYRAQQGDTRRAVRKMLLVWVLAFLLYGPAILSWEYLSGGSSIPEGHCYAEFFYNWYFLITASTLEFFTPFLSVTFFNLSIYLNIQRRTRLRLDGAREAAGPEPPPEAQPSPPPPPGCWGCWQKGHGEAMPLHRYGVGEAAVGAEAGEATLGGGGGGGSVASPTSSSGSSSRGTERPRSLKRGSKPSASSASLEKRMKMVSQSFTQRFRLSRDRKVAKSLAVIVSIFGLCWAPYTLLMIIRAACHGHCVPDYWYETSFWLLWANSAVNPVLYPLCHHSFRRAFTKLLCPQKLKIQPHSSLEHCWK

Take `NC12CC3CC(CC(C3)C1)C2` [Amantadine, amantadine]: in [1], the “Adverse events versus placebo” value was “more frequent adverse events” and the “Improving multiple sclerosis fatigue versus placebo” value is “not superior to placebo”.

As for `COC(=O)C(c1ccccc1)C1CCCCN1` (stereo not shown) [methylphenidate], in data set [1], the “Adverse events versus placebo” value is “more frequent adverse events” and the “Improving multiple sclerosis fatigue versus placebo” value was “not superior to placebo”.

Turning to `NC(=O)C[S+]([O-])C(c1ccccc1)c1ccccc1` (stereo not shown) [modafinil], in data set [2], the “Effect on EDS” value is “generally effective” and the Effect on fatigue entry is reported as “without clear effect”. Besides, in [1], the “Adverse events versus placebo” value was “more frequent adverse events” and the “Improving multiple sclerosis fatigue versus placebo” value is on record as “not superior to placebo”.

For `Clc1ccc(CCCOCCCN2CCCCC2)cc1` [pitolisant monohydrochloride], the “EDS and cataplexy in patients with narcolepsy” value in the data set on patients with narcolepsy (listed as Pitolisant monohydrochloride) was “shown to improve”. Also, the “Blood level of pitolisant and metabolites” value in data set [3] is listed as “dose proportionality”. Also, the “Occupancy of histamine H3 receptors (mean±SD)” value at histamine H3 receptors (PET scan, healthy volunteers) is reported as 84±7%. Besides, on histamine H3 receptors, the “Occupancy of the brain histamine H3-receptors (in words)” value was “high occupancy”. For the same molecule, the “Number and nature of adverse events versus placebo” value with healthy volunteers [4] (setting [9]) was “did not differ”. Besides, the “Fatigue evaluated by the Fusion Frequency” value in [5] (listed as Pitolisant hydrochloride) is reported as “not modified”. Also, the “Wakefulness by Spectral EEG” value in the data set with healthy volunteers [6] is “improved significantly”. Moreover, the “Fusion Frequency (Flicker Fusion Test), fatigue” value with healthy volunteers [7] (60 mg orally) is reported as “reversed the alteration”; in the data set on healthy volunteers [7] (60 mg orally, listed as pitolisant hydrochloride) it was “significantly improved”; in the data set with healthy volunteers [7] (lower doses (20, 40 mg)), “failed. to provide a significant change”. The “Flicker Fusion Test, fatigue (conclusion)” value in the data set with healthy volunteers [7] (30 to 40 mg treatment, conclusion over examples 1 and 2) is on record as “not improved”. For the same molecule, the “SF evaluated with the Pichot scale” value in data set [8] (OSA, trial of Dauvilliers et al. 2020) was “statistically different from placebo”. Further, the “EDS in patients with OSA” value in [8] (two trials) is on record as “reduced”.

Turning to `Clc1ccc(CCCOCCCN2CCCCC2)cc1` [pitolisant, 3-(4-Chlorophenyl) propyl 3-piperidinopropyl ether], the “EDS and cataplexy in patients with narcolepsy” value with patients with narcolepsy was “significant effect”. The Safety and tolerability entry with healthy volunteers [4] (160 mg, 200 mg and 240 mg (doses up to 240 mg od)) was “without overt adverse effect; also recorded: safe and well tolerated”. Further, the “Laboratory parameters, vital signs, physical examination and ECG parameters” value in the data set with healthy volunteers [4] (setting [9]) is listed as “No significant abnormalities”. Moreover, the “Fatigue evaluated by the Fusion Frequency” value in [5] is reported as “not improved”.
